How the values were obtained:
Experiment in all cases: NMR-based dNTPase assay, activation by GTP
Format in all cases: biochemical
[1] = biological target: T1, SAMHD1_114–626 (HD domain construct of SAMHD1) (Homo sapiens, UniProt Q9Y3Z3, C341S)
T1 construct: HD domain construct, residues 114-626, bacterial expression; nucleotide-dependent homotetramer; 10 cysteines
Text: (§1) NMR-based dNTPase assay, activation by GTP on SAMHD1_114–626 (HD domain construct of SAMHD1) | EC50) values for GTP-mediated activation for C341S and C350S were also higher

[2] = biological target: T2, SAMHD1_114–626 (HD domain construct of SAMHD1) (Homo sapiens, UniProt Q9Y3Z3, C350S)
T2 construct: HD domain construct, residues 114-626, bacterial expression; nucleotide-dependent homotetramer; 10 cysteines
Text: as §1

[3] = biological target: T3, SAMHD1_114–626 (HD domain construct of SAMHD1) (Homo sapiens, UniProt Q9Y3Z3)
T3 construct: HD domain construct, residues 114-626, bacterial expression; nucleotide-dependent homotetramer; 10 cysteines
Procedure: NMR-based dNTPase assay, activation by GTP on SAMHD1_114–626 (HD domain construct of SAMHD1) | kcat and EC50^GTP parameters were determined by non-linear fitting

[4] = biological target: T4, SAMHD1_114–626 (HD domain construct of SAMHD1) (Homo sapiens, UniProt Q9Y3Z3, C522S)
T4 construct: HD domain construct, residues 114-626, bacterial expression; nucleotide-dependent homotetramer; 10 cysteines
Text: NMR-based dNTPase assay, activation by GTP on SAMHD1_114–626 (HD domain construct of SAMHD1) | properties of the C522S mutant were indistinguishable from those of the WT protein

T1 sequence (Q9Y3Z3 114-626 C341S): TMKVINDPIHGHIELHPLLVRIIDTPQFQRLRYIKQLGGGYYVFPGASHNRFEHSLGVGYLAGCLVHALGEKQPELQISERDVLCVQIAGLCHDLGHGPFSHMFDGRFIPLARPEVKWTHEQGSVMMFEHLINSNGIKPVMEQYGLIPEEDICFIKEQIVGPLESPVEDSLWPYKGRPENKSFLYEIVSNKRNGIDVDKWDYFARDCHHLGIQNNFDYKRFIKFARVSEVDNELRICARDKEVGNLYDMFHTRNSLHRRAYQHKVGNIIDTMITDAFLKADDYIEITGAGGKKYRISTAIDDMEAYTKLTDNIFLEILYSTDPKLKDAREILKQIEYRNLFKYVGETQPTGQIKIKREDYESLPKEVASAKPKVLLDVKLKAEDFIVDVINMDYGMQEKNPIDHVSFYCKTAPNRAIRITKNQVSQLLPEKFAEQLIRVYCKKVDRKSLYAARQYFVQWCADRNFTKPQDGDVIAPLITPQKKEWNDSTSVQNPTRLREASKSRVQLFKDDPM
T3 sequence (Q9Y3Z3 114-626): as the sequence (Q9Y3Z3 114-626 C341S) above, with S228C counted along it
T4 sequence (Q9Y3Z3 114-626 C522S): as the sequence (Q9Y3Z3 114-626 C341S) above, with S228C, C409S counted along it
T2 sequence (Q9Y3Z3 114-626 C350S): as the sequence (Q9Y3Z3 114-626 C341S) above, with S228C, C237S counted along it

Nc1nc2c(ncn2[C@@H]2O[C@H](COP(=O)(O)OP(=O)(O)OP(=O)(O)O)[C@@H](O)[C@H]2O)c(=O)[nH]1 [GTP]
EC50 [1]: 44.4 µM | EC50 [2]: 8.1 µM | EC50 [3]: 3.9 µM | EC50 [4]: 4.8 µM

— article PMC6067006, “Functionality of Redox-Active Cysteines Is Required for Restriction of Retroviral Replication by SAMHD1” (Cell reports, 2018)
